≈ marks a conversion by molar mass, not a printed value. Where “and” joins values, the source holds several entries; their conditions need not be identical. Equal entries are not always repeated. Where two headings read alike, the source gives them in different places.
Key:
[1] = biological target: T1, Mtb-DprE1 (Mycobacterium tuberculosis, UniProt P9WJF1); assay: biochemical; format: biochemical; conditions: for dependence of kobs on inhibitor concentration: inhibitor 10 nM to 100 µM; for kinact/Ki: second order rate constant of inactivation, 150 nM Mtb-DprE1, 1 mM FPR, up to 100 min; for fold lower kinact/Ki of BOZ than the BTZ counterpart: 4 vs 7, 3 vs 6, 5 vs 9; for fold increase in kinact/Ki as compared to 7: relative to 7
T1 construct: made in house; host or cells: E. coli
T1 sequence (P9WJF1 whole entry): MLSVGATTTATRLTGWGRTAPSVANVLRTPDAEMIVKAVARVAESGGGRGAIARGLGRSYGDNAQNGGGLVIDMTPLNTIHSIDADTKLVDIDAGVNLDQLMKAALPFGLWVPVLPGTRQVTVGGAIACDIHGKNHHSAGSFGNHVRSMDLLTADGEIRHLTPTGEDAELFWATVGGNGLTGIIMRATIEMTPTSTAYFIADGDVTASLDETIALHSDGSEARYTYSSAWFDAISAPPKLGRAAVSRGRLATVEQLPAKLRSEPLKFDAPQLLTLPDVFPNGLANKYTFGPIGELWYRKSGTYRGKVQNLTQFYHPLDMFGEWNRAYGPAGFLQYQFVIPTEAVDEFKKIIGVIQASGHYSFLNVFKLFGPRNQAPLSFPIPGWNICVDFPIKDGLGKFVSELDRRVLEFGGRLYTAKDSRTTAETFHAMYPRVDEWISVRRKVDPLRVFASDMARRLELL

[2] = tested on: M. smegmatis; assay: MIC against M. smegmatis (literature); format: cell-based
[3] = tested on: M. smegmatis DprE1; set-up: method as in PMID 22956199; conditions: cited from earlier work; for IC50: read-out: M. smegmatis DprE1 enzymatic IC50
[4] = tested on: M. smegmatis; set-up: method as in PMID 22956199; conditions: cited from earlier work
[5] = tested on: M. tuberculosis H37Rv; assay: Minimal inhibitory concentration, M. tuberculosis H37Rv; format: cell-based, Mycobacterium tuberculosis; conditions: for MIC Mtb-H37Rv / MIC / Inhibition of Mtb-H37Rv (MIC): n = 3; for MIC: read-out: MIC Mtb-H37Rv; for fold higher Mtb MIC of BOZ relative to BTZ counterpart: 5 vs 9, 10 vs PBTZ169
Description: MIC values for M. tuberculosis H37Rv and M. vaccae […] were determined as described previously[33],[34].

[6] = tested on: M. vaccae 10670; assay: Minimal inhibitory concentration, M. vaccae; format: cell-based; conditions: n = 1
[7] = format: physicochemical; conditions: pH 7.4
Description: Solubility of compounds was measured by Chemi-Luminescent Nitrogen Detection (CLND)[32]. […] of 10 mM DMSO stock solutions of compounds were diluted to […] with phosphate buffered saline (PBS), pH 7.4, equilibrated for 1 hour at room temperature and filtered through Millipore Multiscreen HTS-PCF filter plates (MSSL BPC) prior to analysis by CLND.

[8] = biological target: T1, Mtb-DprE1; assay: Intact protein mass spectrometry of Mtb-DprE1 after incubation with inhibitor; format: binding; conditions: for mass increase of Mtb-DprE1 (covalent adduct): incubated in the presence of FPR and FAD, LC-MS; for extent of modification of Mtb-DprE1: 20 μM FAD
[9] = IC50, final value of the decrease during the first 100 min of reaction, 100 min of reaction
[10] = IC50, starting value of the decrease during the first 100 min of reaction, early reaction time
[11] = Mycobacterium tuberculosis, H37RV

Row | SMILES | dependence of kobs on inhibitor concentration [1] | kinact/Ki [1] | MIC Mtb-H37Rv [5] | MIC [5] | MIC [6] | MIC M. vaccae 10670 [6] | CLND Solubility [7] | also measured
1 | O=c1nc(N2CCOCC2)sc2c([N+](=O)[O-])cc(C(F)(F)F)cc12 [Compound 6, 2-(morpholin-4-yl)-8-nitro-6-(trifluoromethyl)-4H-1,3-benzothiazin-4-one] | hyperbolic dependence |  |  |  |  |  |  | 
2 | C[C@H]1COC2(CCN(c3nc(=O)c4cc(C(F)(F)F)cc(NO)c4s3)CC2)O1 [BTZ046] |  |  |  |  |  |  |  | fold by which MIC against M. smegmatis is lower than the enzymatic IC50 ([2]; from literature values): approximately 8 fold; time dependent inhibition of M. smegmatis DprE1 [3]: not observed; IC50 [3]: 20 µM; MIC against M. smegmatis [4]: 1000 ng/ml and 2.4 μM
3 | O=c1nc(N2CCOCC2)oc2c([N+](=O)[O-])cc(C(F)(F)F)cc12 [C00007] |  | 4.2 ± 0.1 M⁻¹ s⁻¹ | 1.4 µg/mL (≈ 4.06 µM) | 3.9 µM (≈ 1.35 µg/mL) | 18 µM (≈ 6.21 µg/mL) | 6.2 µg/mL (≈ 18 µM) | ≥510 µM | 
4 | O=Nc1cc(C(F)(F)F)cc2c(=O)nc(N3CCCCC3)sc12 [Compound 1, 8-Nitroso-2-(piperidin-1-yl)-6-(trifluoromethyl)-4H-1,3-benzothiazin-4-one] |  |  |  |  |  |  |  | IC50 [1, 9]: 3 µM; IC50 [1, 10]: 5 µM; mass increase of Mtb-DprE1 (covalent adduct) [8]: 343 Da
5 | O=c1nc(N2CCCCC2)oc2c([N+](=O)[O-])cc(C(F)(F)F)cc12 [Compound 4, 8-nitro-2-(piperidin-1-yl)-6-(trifluoromethyl)-4H-1,3-benzoxazin-4-one] | linear dependence |  |  |  |  |  |  | fold lower kinact/Ki of BOZ than the BTZ counterpart [1]: 7 fold
6 | C[C@H]1COC2(CCN(c3nc(=O)c4cc(C(F)(F)F)cc(N=O)c4s3)CC2)O1 [C00014] |  | 39 ± 1 M⁻¹ s⁻¹ |  |  | 0.06 µM (≈ 0.0249 µg/mL) | 0.03 µg/mL (≈ 0.0722 µM) | 210 µM | Inhibition of Mtb-H37Rv (MIC) ([5]; at 0.16 μM): 67% Inhibition at 0.16 μM
7 | O=c1nc(N2CCOCC2)oc2c([N+](=O)[O-])cc(C(F)(F)F)cc12 [Compound 3, 2-(morpholin-4-yl)-8-nitro-6-(trifluoromethyl)-4H-1,3-benzoxazin-4-one] | linear dependence |  |  |  |  |  |  | fold lower kinact/Ki of BOZ than the BTZ counterpart [1]: 4 fold
8 | O=c1nc(N2CCCCC2)sc2c([N+](=O)[O-])c(Cl)c(C(F)(F)F)cc12 [Compound 11, 7-Chloro-8-nitro-2-(piperidin-1-yl)-6-(trifluoromethyl)-4H-1,3-benzothiazin-4-one] | hyperbolic dependence |  |  |  |  |  |  | fold increase in kinact/Ki as compared to 7 [1]: 8.7 fold; mass increase of Mtb-DprE1 (covalent adduct) [8]: 378 Da
9 | O=c1nc(N2CCCCC2)sc2c([N+](=O)[O-])cc(C(F)(F)F)cc12 [C00002] |  | 39 ± 2 M⁻¹ s⁻¹ | 1.2 µg/mL (≈ 3.34 µM) | 3.3 µM (≈ 1.19 µg/mL) | 1.1 µM (≈ 0.395 µg/mL) | 0.4 µg/mL (≈ 1.11 µM) | 370 µM | 
10 | O=c1nc(N2CCOCC2)sc2c([N+](=O)[O-])cc(C(F)(F)F)cc12 [C00003] |  | 17 ± 2 M⁻¹ s⁻¹ | 2.1 µg/mL (≈ 5.81 µM) | 5.9 µM (≈ 2.13 µg/mL) | 8.6 µM (≈ 3.11 µg/mL) | 3.1 µg/mL (≈ 8.58 µM) | ≥450 µM | 
11 | O=c1nc(N2CCCCC2)sc2c([N+](=O)[O-])cc(C(F)(F)F)cc12 [Compound 7, 8-Nitro-2-(piperidin-1-yl)-6-(trifluoromethyl)-4H-1,3-benzothiazin-4-one] | linear dependence |  | low micromolar |  |  | low micromolar |  | 
12 | O=c1nc(N2CCCCC2)sc2c(NO)cc(C(F)(F)F)cc12 [C00013] |  |  |  | >80 µM | 18 µM (≈ 6.22 µg/mL) | 6.2 µg/mL (≈ 18 µM) | 10 µM | 
13 | C[C@H]1COC2(CCN(c3nc(=O)c4cc(C(F)(F)F)cc([N+](=O)[O-])c4s3)CC2)O1 [Compound 12, reference compound] | linear dependence |  |  |  |  |  |  | IC50 ([1]; after 10 min of reaction time, read-out: enzymatic DprE1 IC50): ~1.5 µM; IC50 ([1]; after 100 min of reaction time, read-out: enzymatic DprE1 IC50): ~0.12 µM; IC50 ([1]; equal to half the concentration of enzyme in the assay (150 nM), read-out: limiting IC50 value in theory had the assay been monitored longer): 0.075 µM; fold by which reported M. smegmatis and M. tuberculosis MIC values are lower than M. smegmatis DprE1 IC50 ([2]; MIC ref 4, IC50 ref 9): approximately 1000 fold; IC50 [3]: 4.5 µM; change in the mass spectrum of Mtb-DprE1 ([8]; control experiment in the absence of substrate): no change was observed
14 | CC1COC2(CCN(c3nc(=O)c4cc(C(F)(F)F)cc(N=O)c4s3)CC2)O1 (centres unmarked) [Compound 8, 2-{2-Methyl-1,4-dioxa-8-azaspiro[4.5]decan-8-yl}-8-nitroso-6-(trifluoromethyl)-4H-1,3 benzothiazin-4-one] | linear dependence |  |  |  |  |  |  | 
15 | O=c1nc(N2CCN(CC3CCCCC3)CC2)sc2c([N+](=O)[O-])cc(C(F)(F)F)cc12 [C00010] |  |  | 0.00019 µg/mL (≈ 0.000416 µM) | 0.00042 µM (≈ 0.000192 µg/mL) |  |  | 32 µM | 
16 | O=Nc1cc(C(F)(F)F)cc2c(=O)nc(N3CCCCC3)sc12 [C00012] |  |  |  |  | 73 µM (≈ 25.1 µg/mL) | 25 µg/mL (≈ 72.8 µM) | 250 µM | Inhibition of Mtb-H37Rv (MIC) ([5]; at 80 μM): 82% Inhibition at 80 μM
17 | O=c1nc(N2CCCCC2)oc2c([N+](=O)[O-])cc(C(F)(F)F)cc12 [C00006] |  | 5.6 ± 0.1 M⁻¹ s⁻¹ | 5.3 µg/mL (≈ 15.4 µM) | 16 µM (≈ 5.49 µg/mL) | 4.6 µM (≈ 1.58 µg/mL) | 1.6 µg/mL (≈ 4.66 µM) | ≥510 µM | 
18 | C[C@H]1COC2(CCN(c3nc(=O)c4cc(C(F)(F)F)cc([N+](=O)[O-])c4s3)CC2)O1 [C00009] |  | 720 ± 20 M⁻¹ s⁻¹ | 0.001 µg/mL (≈ 0.00232 µM) | 0.0023 µM (≈ 0.000992 µg/mL) | 0.001 µM (≈ 0.000431 µg/mL) | 0.0004 µg/mL (≈ 0.000927 µM) | 32 µM | 
19 | CC1CCCC(C)N1c1nc(=O)c2cc(C(F)(F)F)cc([N+](=O)[O-])c2o1 (centres unmarked) [Compound 5, 2-(2,6-Dimethylpiperidin-1-yl)-8-nitro-6-(trifluoromethyl)-4H-1,3-benzoxazin-4-one] | linear dependence |  |  |  |  |  |  | fold lower kinact/Ki of BOZ than the BTZ counterpart [1]: 31 fold; fold higher Mtb MIC of BOZ relative to BTZ counterpart [5]: 8 fold
20 | O=c1nc(N2CCN(CC3CCCCC3)CC2)oc2c([N+](=O)[O-])cc(C(F)(F)F)cc12 [C00011] |  | 300 ± 40 M⁻¹ s⁻¹ | 0.14 µg/mL (≈ 0.318 µM) | 0.31 µM (≈ 0.137 µg/mL) | < 0.11 µM | < 0.05 µg/mL | 12 µM | 
21 | O=c1nc(N2CCCCC2)sc2c(NO)cc(C(F)(F)F)cc12 [Compound 2] |  |  |  |  |  |  |  | IC50 [1, 9]: 0.8 µM; IC50 [1, 10]: 3.5 µM; MIC [5, 11]: > 80 µM; mass increase of Mtb-DprE1 species (covalent adduct) ([8]; 10 µM Mtb-DprE1, 20 µM compound, absence of FPR and resazurin): 340–343 Da; time for covalent modification of the enzyme to reach completion ([8]; 20 μM compound, 10 µM Mtb-DprE1, no FPR): approximately one hour; extent of modification of Mtb-DprE1 ([8]; 30 minutes after incubation): partial modification; extent of modification of Mtb-DprE1 ([8]; 60 minutes after incubation): complete modification; mass increase of Mtb-DprE1 (covalent adduct) [8]: 343 Da; MIC ([6]; Mycolicibacterium vaccae, 10670): 18.1 µM (≈ 6.25 µg/mL)
22 | O=c1nc(N2CCN(CC3CCCCC3)CC2)oc2c([N+](=O)[O-])cc(C(F)(F)F)cc12 [Compound 10, 2-[4-(cyclohexylmethyl)piperazin-1-yl]-8-nitro-6-(trifluoromethyl)-4H-1,3-benzoxazin-4-one] | hyperbolic dependence |  |  |  |  |  |  | fold higher Mtb MIC of BOZ relative to BTZ counterpart [5]: approximately 700 fold; MIC [5, 11]: 0.3 µM (≈ 0.132 µg/mL)
23 | CC1CCCC(C)N1c1nc(=O)c2cc(C(F)(F)F)cc([N+](=O)[O-])c2s1 (centres unmarked) [Compound 9, 2-(2,6-Dimethylpiperidin-1-yl)-8-nitro-6-(trifluoromethyl)-4H-1,3-benzothiazin-4-one] | linear dependence |  |  |  |  |  |  | fold increase in kinact/Ki as compared to 7 [1]: 6 fold
